Here are results for seven compounds from patent US10889575B2, “4,4-diphenylpiperidine compounds or pharmaceutically acceptable salts thereof, pharmaceutical compositions and uses thereof” (Academy of Military Medical Sciences, priority 2017, dated 2021).

Values joined by “and” are separate entries in the source; they are usually repeats but may differ in a detail not shown here. Equal values may be shown once. Where a name gives a salt, the structure may show the parent alone. Read-outs that look alike come from different tables or passages of the source.

In data set [1] the test system is acetic acid writhing in mice. Nature of the data set: mouse acetic acid writhing model (analgesic effect). The conditions noted are these: intragastric 30 mg/kg; for Writhing inhibition rate (%): 40 min before i.p. 0.6% acetic acid, writhings counted over 15 min. It is filed as in vivo, Kunming mice. From the text:
1. Experimental purposes: To determine the analgesic activity of Compound (4) hydrochloride and Compounds (1), (2), (3), (5) in a mouse acetic acid writhing model.
2. Experimental materials: Kunming mice (18-22 g), half male and half female, were provided by the Experimental Animal Center of the Academy of Military Medical Sciences.
The mice were weighed and labeled, 10 mice in each group (half male and half female), the mice were divided into 7 groups, including 5 experimental groups (using Compound (4) hydrochloride, Compound (1), (2), (3), (5), respectively), positive control group (using NMED-160) and negative control group (using normal saline). Among them, NMED-160 used in the positive control group was a selective small molecule N-type calcium ion channel blocker, which had entered the phase II clinical trial and could be synthesized by referring to document^[11], and the structural formula thereof is as follows: […]
The mice were intragastrically administered with drug (30 mg/kg). After 40 minutes, 0.4 mL of 0.6% (v/v) acetic acid was intraperitoneally injected. After 5 minutes, the number of mouse writhings in the subsequent 15 minutes was recorded. The inhibition rate of the drug on the acetic acid writhing in mice was calculated according to the following formula, and the analgesic effect of the drug was evaluated.
A represents the number of writhings in the negative control group;
B represents the number of writhings in the experimental groups or the positive control group.
Background: Writhing tests count abdominal constrictions after an irritant is injected.

Data set [2] deals with N-type calcium ion channel (α1B/β1b/α2δ). Briefly: N-type calcium ion channel current suppression, two-electrode voltage clamp in Xenopus oocytes. It is filed as cell-based. The conditions noted are these: 10 μM. On the procedure:
To determine the current suppressing effects of Compound (4) hydrochloride and Compounds (1), (2), (3), (5) of the present invention on N-type calcium ion channel (α1B/β1b/α2δ) transiently expressed in Xenopus oocytes.
Plasmids α1B, α2δ, β1b were injected into Xenopus oocytes in concentration ratio of 1:1:1, and the total volume of the three plasmids injected into per cell was about 46 nL. The injected cells were placed in ND-96 medium at 18° C. for 48 hours, then the expressed current was recorded.
Perfusion administration method was adopted with a flow rate of 3 mL/min and a test drug concentration of 10 μM. Using two-electrode voltage clamp technique, the cell was clamped at −100 mV, stepped at 10 mV, depolarized to +60 mV, and the current was recorded.
Current inhibition rate (%)=100×(current amplitude after administration−current amplitude before administration)/current amplitude before administration
Background: Two-electrode voltage clamp holds a large cell at a set potential and records current.

Data set [3] in a line: Rapid evaluation of pharmacokinetics in rats. It is filed as in vivo, SD rats. On the procedure:
Compound (1) was dissolved in 25% (w/v) aqueous solution of hydroxypropyl-β-cyclodextrin;
Adult SD rats, 180-220 g in body weight, male, purchased from the Animal Center of the Academy of Military Medical Sciences, Animal Certificate SCXK-(Army)-2012-0004;
Six adult SD rats were randomly numbered, and divided into 2 groups to receive intravenous injection (i.v., 1.85 mg/kg) and oral administration (p.o., 11 mg/kg) of Compound (1), respectively; blood samples were collected at 0.1 mL before administration and 2 minutes, 5 minutes, 15 minutes, 30 minutes, 60 minutes, 2 hours, 4 hours, 7 hours and 24 hours after administration, placed in anticoagulation tubes, centrifuged for 15 minutes (3500 rpm) to separate plasma, and 0.05 mL plasma samples were accurately taken and frozen in a refrigerator at −30° C. for later tests.
To the 0.05 mL rat plasma sample, 0.3 mL of acetonitrile containing the internal standard substance megestrol (100 ng/mL) and 0.005 mL of blank acetonitrile were added, vortexed for 1 minute on a vortex mixer, and centrifuged for 10 minutes (14,000 g), about 0.15 mL of the supernatant was taken and placed into an injection vial, injected 5 μL to LC-MS/MS for detection and analysis by referring to the method of the above section 2. […] The results of 1 # to 3 # were averaged, the results of 4 # to 6 # were averaged, and the relationship curves of the average concentrations of Compound (1) in the rats of i.v. administration and in the rats of p.o. administration against time were obtained and shown in FIG. 2. The Winnolin pharmacokinetic software was used to analyze the measured data and calculate the main pharmacokinetic parameters, including the area under curve (AUC), clearance rate (CL), apparent distribution volume (V), terminal elimination half life (t1/2) and mean residence time (MRT) for the intravenous injection, as well as the area under curve (AUC), terminal elimination half life (t1/2), mean residence time (MRT), peak concentration (Cmax), time to peak (Tmax) and biological force (F) for the oral administration.

A short description of a further data set: in vivo. The settings on record: SD, rat, iv.
Data set [4] in a line: Evaluation of the central nervous system distribution in rats. The conditions noted are these: for Kp at 2 h: SD, rat.
Where [5] appears, read: male, SD, rat, plasma, intravenous injection 1.85 mg/kg, n = 3.
[6] abbreviates: male, SD, rat, plasma, oral administration 11 mg/kg, n = 3.

With `COc1cc(CN2CCC(c3ccccc3)(c3ccccc3)CC2)cc(OC)c1OC` (as salt: hydrochloride), the melting point – broadly, the temperature, or range, at which the solid turns liquid – fell in the range of 235 to 237 °C.
Turning to `O=C(CCN1CCC(c2ccccc2)(c2ccccc2)CC1)c1ccc2[nH]c(=O)oc2c1` [Compound (1), 6-(3-(4,4-diphenylpiperidinyl)-propionyl)benzoxazolin-2-one], the melting point was 236 °C (dec.). For the same compound, in data set [1], the “Writhing inhibition rate (%)” value was found to be 58.77%. The “analgesic effect (in words)” value in data set [1] (acetic acid writhing) was “comparable to that of NMED-160”. Further, in data set [2], the “Current inhibition rate (%)” value worked out at 70.6%. For the same compound, the “effect of liver metabolism on the clearance in vivo” value in data set [3] (i.v. clearance compared with rat liver blood flow (3.3 L/h/kg)) is “about 70%”. Also, in data set [3] (intravenous injection 1.85 mg/kg, n = 3, 1.85 mg/kg), the V was 12.39 L/kg and 12.39 ± 3.17 L/kg. Also, in data set [3] (setting [5]), the AUC (as a rule, concentration integrated over time) turned out to be 750 ± 98.2 ng·h/mL; the MRT – broadly, the average time that molecules of a dose stay in the body – amounted to 3.87 ± 0.18 h; the clearance (in general, the rate of elimination divided by the concentration) was 39.7 mL/min/kg; the half-life (in general, the time needed for the level to fall by half in the phase considered) is 5 ± 0.88 h. Also, in data set [3] (setting [6]), the AUC was 1670 ± 222 ng·h/mL, the Cmax (usually the highest concentration seen after dosing) amounted to 188 ± 28.5 ng/mL, the MRT amounted to 5.6 ± 0.46 h and the half-life is 5.4 ± 1.5 h. Further, the time of peak concentration (Tmax) – broadly, the time from dosing to the highest level – in data set [3] (male, SD, rat, plasma, po, 11 mg/kg, oral administration 11 mg/kg, n = 3, read-out: Tmax) was 1 to 2 h. Moreover, the F in data set [3] (oral 11 mg/kg vs intravenous 1.85 mg/kg, n = 3) was 44.7% and 44.7 ± 5.93%. Moreover, the Tmax in data set [3] (oral administration 11 mg/kg, n = 3, 11 mg/kg) is given as 1.33 ± 0.58 h. The concentration at 2 h in “in vivo” was 271 ng/mL and 998 ng/g. Further, the Kp at 2 h in data set [4] (brain/plasma, intravenous) turned out to be 3 ± 0.71. The same compound returned a Kp at 2 h in data set [4] (in vivo) of 3 to 4. In addition, the Kp at 2 h in data set [4] (spinal cord/plasma, intravenous) came out at 3.7 ± 1.3. The “Concentration, Rat brain tissue” value in data set [4] (rats, i.v. bolus then instillation, 2 hours after administration, n = 3) is listed as 808.3 ± 233.8 ng/g.
As for `O=C(CN1CCC(c2ccccc2)(c2ccccc2)CC1)c1ccc2[nH]c(=O)oc2c1` [Compound (2), 6-(3-(4,4-diphenylpiperidinyl)-acetyl)benzoxazolin-2-one], the “Writhing inhibition rate (%)” value in data set [1] is recorded as 54.66%. Further, the “Current inhibition rate (%)” value in data set [2] was 65.6%.
`CN(C)c1ccc(CN2CCC(c3ccccc3)(c3ccccc3)CC2)cc1` [Compound (3), 1-(4-dimethylaminobenzyl)-4,4-diphenylpiperidine] showed a melting point of 128 to 130 °C. In addition, the “Writhing inhibition rate (%)” value in data set [1] was 23.17%. Further, the “Current inhibition rate (%)” value in data set [2] is 42.3%.
As for `COc1cc(CN2CCC(c3ccccc3)(c3ccccc3)CC2)cc(OC)c1OC.Cl` [Compound (4) hydrochloride, 1-(3,4,5-trimethoxybenzyl)-4,4-diphenylpiperidine hydrochloride], in data set [1], the “Writhing inhibition rate (%)” value was 39.68%. In addition, in data set [2], the “Current inhibition rate (%)” value was 54.1%.
The corresponding values for `c1ccc(C2(c3ccccc3)CCN(Cc3cccs3)CC2)cc1` [Compound (5), 1-(2-methylthienyl)-4,4-diphenylpiperidine] are 46.87% and 45.3%.
`O=C(CC(c1ccccc1)c1ccccc1)N1CCN(C(c2ccccc2)c2ccccc2)CC1` [NMED-160, reference compound]: in data set [1], the “Writhing inhibition rate (%)” value amounted to 51.75%.
